Test results from US20220264883A1, “IMIDAZOTHIAZOLE COMPOUNDS AND METHODS FOR TREATING PLANT NEMATODE INFECTIONS” (The Governing Council of the University of Toronto, priority 2019, published 2022).

Experiments:
[1] = test system: M. incognita J2 larvae; experiment: Meloidogyne incognita in vitro assays (J2 movement); format: in vivo; details: 45 μM, 2 days, relative to DMSO control
Experimental: M. incognita (Kofoid & White) Chitwood Race 1 (originally isolated in Maryland) was used for all experiments, and was maintained on pepper (Capsicum annuum L.) cv. PA-136 in a greenhouse as previously described^64. Infective J2 juveniles were collected as described in ref.65. The microwell dose-response experiments were carried out similarly to previously described protocols^64, 66. In brief, 100 J2s, in 10 μL of deionized water, were added to the wells of 96-well polystyrene plates, after which 190 μL of deionized water containing dissolved chemical, or DMSO alone, was added to each well. The chemicals were tested at 45 μM, and the final concentration of DMSO in each well was 0.5% (v/v). The wells were covered with a plastic adhesive strip, and the lids of the plates were sealed with parafilm. The plates were incubated at 25° C. The mobile fraction of worms was quantified by counting the number of mobile and immobile worms after 2 days of incubation, and then dividing the number of mobile worms by the total number of worms in the well. Three technical replicates were performed for each treatment, and an average value for the mobile fraction of worms was calculated across the three replicates. The percent effectiveness at inhibiting nematode movement was calculated by dividing the average value for the chemical treatment by the average value for the DMSO control, then subtracting this value from 1, and then multiplying by 100.

[2] = test system: HEK293 cells; experiment: HEK cell culture and dose-response experiments; format: cell-based, Human; details: non-target system; 48 hours, CellTiter-Blue
Experimental: HEK293 cells were seeded into 96-well plates, at 5000 cells per well, in 100 μL total volumes of DMEM/10% FBS/1% PS media and grown overnight at 37° C. in the presence of 5% CO2. Compounds (0.5 μL volumes from appropriate source plates) were then added to cells, and growth was continued for an additional 48 hours. Following growth, 10 μL of CellTiter-Blue Viability reagent (Promega) was added to each well, and plates were incubated for an additional 4 hours at 37° C. in the presence of 5% CO2. Fluorescence measurements (560 nm excitation/590 nm emission) were then performed using a CLARIOstar Plate Reader (BMG Labtech) to quantify reagent reduction and estimate cell viability.

[3] = test system: D. rerio; experiment: Danio rerio (zebrafish) embryo dose-response experiments; format: in vivo; details: non-target system; embryos, 24 hours exposure
Experimental: Zebrafish chemical assays were performed similarly to previously described methods^63. In brief, fish were maintained at 28.5° C. on a 14/10 hour light/dark cycle and staged according to hours post fertilization (hpf). For each biological replicate, eggs from LT fish (AB/Tubingen strain) were collected at 4 hpf. At 24 hpf, embryos were arrayed in 24 well plates, 10 per well. In 2 ml tubes, 4 μl of chemical dissolved in DMSO at the appropriate concentration was added to 800 μl of water and then vortexed for 30 s intensively. Water was removed from the embryos in the wells and 800 μl of chemical-treated water was transferred to each of the wells. The DMSO control wells contained DMSO alone. The final DMSO concentration in every well was 0.5% (v/v). […] The embryos were incubated in the chemicals for 24 hours and scored for death and toxicity at 48 hpf. Toxicity was defined as the embryos showing developmental defects such as a curved body, reduced body size, skin whiteness, and heart edema. “Relative viability” was calculated by dividing the number of viable and properly developed embryos in the treatment wells by the average number of viable and properly developed embryos across six DMSO control wells. Three biological replicates were performed for each dose-response experiment, and the relative viability values were averaged across the three replicates.

Structure (SMILES) | % effectiveness at reducing M. incognita movement [1] | HEK Cells LC50 [2] | D. rerio LC50 [3]
Cc1csc2nc(-c3ccccc3)cn12 [Compound Ie] | 4.9% | – | –
Clc1ccc(-c2cn3ccsc3n2)cc1 [Ia] | – | inactive | inactive
